Test results as given in US20240075087A1, “COMPOSITIONS AND METHODS COMPRISING HEMP EXTRACT FOR THE TREATMENT OF ANIMALS IN NEED” (Portland Technology Holdings LLC, priority 2021, published 2024).
In brackets after ≈: the same amount, converted by molar mass.

Tests used:
[1] = Single-dose oral pharmacokinetics of CBD in healthy dogs; assay type: in vivo; settings: dog, serum
Method: The single-dose oral pharmacokinetics of CBD and an assessment of safety and adverse effects during 12-week administration using a hemp-based product in healthy dogs and cats were determined in this study. […] More details about this study can be found in “Deabold, K. A.; Schwark, W. S.; Wolf, L.; Wakshlag, J. J., Single Dose Pharmacokinetics and Preliminary Safety Assessment with Use of CBD-Rich Hemp Nutraceutical in Healthy Dogs and Cats, Animals 2019, 9, 832, DOI 10.3390/ani9100832,” which is incorporated herein by reference in its entirety.

CYP2D15 = biological target: T1, CYP2D15 (Canis lupus familiaris, UniProt Q29473); assay: CYP2D15 activity inhibition in pooled dog liver microsomes; assay type: in vitro ADME; settings: no preincubation vs 20 min preincubation, 10 μM
T1 construct: P450-specific marker activities in pooled dog liver microsomes; from tissue; host or cells: pooled dog liver microsomes
T1 sequence (Q29473 1-500): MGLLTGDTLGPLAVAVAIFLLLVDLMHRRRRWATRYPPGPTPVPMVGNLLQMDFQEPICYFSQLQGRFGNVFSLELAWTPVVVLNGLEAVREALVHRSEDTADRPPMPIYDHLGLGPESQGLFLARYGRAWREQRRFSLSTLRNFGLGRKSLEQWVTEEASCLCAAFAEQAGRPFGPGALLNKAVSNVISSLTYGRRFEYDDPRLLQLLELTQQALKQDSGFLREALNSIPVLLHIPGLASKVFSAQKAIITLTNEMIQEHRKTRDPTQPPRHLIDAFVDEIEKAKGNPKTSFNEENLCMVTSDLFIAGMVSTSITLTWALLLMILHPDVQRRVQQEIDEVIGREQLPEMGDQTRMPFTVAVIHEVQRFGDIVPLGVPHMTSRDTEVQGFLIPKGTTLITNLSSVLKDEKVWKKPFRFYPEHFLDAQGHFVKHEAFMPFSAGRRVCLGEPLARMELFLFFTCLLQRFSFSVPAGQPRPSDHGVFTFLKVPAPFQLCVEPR
Method: Inhibition potency (i.e. IC50) is determined by measuring the decrement in metabolism of P450-specific marker activities in pooled dog liver microsomes with increasing concentrations of CBD, CBDA, and hemp extracts. P450-specific markers include bupropion 6-hydroxylation (CYP2B11), dextromethorphan 0-demethylation (CYP2D15) and omeprazole sulfoxidation (CYP3A12). IC50 values are determined both with and without preincubation of liver microsomes with potential inhibitor to evaluate whether there is mechanism-based time-dependent inhibition.
The following parameters are assessed: (1) the rates of CBD and CBDA metabolism by dog liver microsomes and by 11 recombinant canine P450 enzymes; (2) the predicted percent contribution of each P450 to total CBD and CBDA metabolism in dog liver; and (3) IC50 values for inhibition of CYP2B11, CYP2D15 and CYP3A12 metabolism in dog liver, both with and without inhibitor preincubation.

canine P-glycoprotein = biological target: T2, canine P-glycoprotein (Canis lupus familiaris, UniProt C0KKU9); assay: P-glycoprotein competitive transport assay (rhodamine 123, MDCK PGP cells); assay type: in vitro ADME; settings: highest concentration tested, 1,000 ng/mL
T2 construct: host or cells: MDCK PGP cells (canine P-gp expressing cell line)
Method: In this second study, a competitive P-gp substrate assay incorporating a canine P-gp expressing cell line is used to assess each test compound's ability to compete with the P-gp substrate rhodamine 123. Each concentration is tested on 3 separate days with same-day duplicates. Positive controls and negative controls are included in each run.
Results for each concentration of test compound evaluated are reported as non-P-gp substrate, weak P-gp substrate, moderate P-gp substrate, or strong P-gp substrate. The concentrations for CBD and CBDA are as follows: 10 ng/mL, 100 ng/mL and 1,000 ng/mL.
A competitive P-gp substrate assay using a canine P-gp expressing cell line was used to assess CBDA and/or CBD as a substrate for canine P-glycoprotein.

[2] = test system: CMT12 mammary gland carcinoma cell line; assay: 48 hours MTT proliferation assay, CMT12; assay type: cell-based, canine; settings: pure compound
Method: (§1) 3-(4,5-Dimethylthaizol-2-yl)-2,5-diphenyltetrazolium bromide (MTT) assays are performed on all previously described cell lines; CMT12, HMPOS, D17, Abrams and 17-71. […] Cells are treated with vehicle (methanol or ethanol/DMSO mix) or various concentrations of the CBD, CBDA or CBD-rich hemp extract ranging from 0.42 to 20 μg/mL in serial dilution for 48 hours. MTT assays are performed after 48 hours of treatment by adding 20 μL of MTT dye ([…] filtered 5 mg/mL in phosphate-buffered saline [PBS]) to each well and incubating at 37° C. in 5% CO2 for 2 hours. The media is then aspirated, washed once with 200 μL of PBS and then solubilized in 200 μL of ethanol. Immediate analysis of the optical density of each well is performed using a spectrophotometric plate reader (Epoch; Biotek, Winooski, Vermont) at a wavelength of 570 nm as previously described (e.g., Vega-Avila E and Pugsley M K, An overview of colorimetric assay methods used to assess survival or proliferation of mammalian cells, Proc West Pharmacol Soc., 2011, 54, pp. 10-14 which is incorporated herein by reference in its entirety). The percent proliferating cells of control for each concentration is averaged and reported as a mean+/—SD from triplicate wells over three experiments.
(§2) For CBD, CBDA and hemp extract concentrations needed to obtain a 50% inhibition of cell proliferation (IC50) are then calculated across experiments by Probit analysis using XLFit5 software (IDBS, Guildford, United Kingdom) for reporting the results for each cell line.

[3] = test system: Abrams osteosarcoma cell line; assay: 48 hours MTT proliferation assay, Abrams; assay type: cell-based, canine; settings: pure compound
Method: as §1, §2

17-71 cells = assay: Trypan blue exclusion assay, 17-71; assay type: cell-based, canine; settings: 48 hours, vehicle control 3±1%
Method: (§3) The trypan blue exclusion assay is performed on canine primary dermal fibroblasts (CDF) because of the slow rate of proliferation and low metabolic activity of these normal canine cells, precluding productive MTT assays. The effects of CBD treatments are compared with the results obtained on the 17-71, CMT12 and D17 cell lines for comparative purposes. For the CDF cells, applied cell extracellular matrix (ABM) is applied overnight to 24-well tissue culture-treated plates (Applied Biological Materials [ABM], Richmond, BC, Canada). For all cell lines, cells are plated at a density of 5×10^3 cells per well and incubated until 60% confluent before treatment with methanol vehicle control, 3.75, 7.5, and 15 μg/mL of CBD to cells for 48 hours. Cells are then trypsinized, collected and centrifuged at 1900 g for 10 minutes. With the exception of the 17-71 cell line, cells are detached with Accumax (Invitrogen, Carlsbad, California). The cell pellet is resuspended in 0.1% trypan blue (Sigma Aldrich, St Louis, Missouri) in PBS solution, loaded on a Cell Countess disposable cell counting slide with automatic counting of all positively stained cells in the Countess II Cell Counter under identical settings for each cell line (Invitrogen; ThermoFisher Scientific, Carlsbad, California) using the same parameters for each cell line. All treatments are performed in triplicate and the percent of viable cells are averaged.

CMT12 cells = assay: Trypan blue exclusion assay, CMT12; assay type: cell-based, canine; settings: 48 hours, vehicle control 3±1%
Method: as §3

[4] = Canis lupus familiaris, read-out: IC50 (Probit)

T2 sequence (C0KKU9 1-1281): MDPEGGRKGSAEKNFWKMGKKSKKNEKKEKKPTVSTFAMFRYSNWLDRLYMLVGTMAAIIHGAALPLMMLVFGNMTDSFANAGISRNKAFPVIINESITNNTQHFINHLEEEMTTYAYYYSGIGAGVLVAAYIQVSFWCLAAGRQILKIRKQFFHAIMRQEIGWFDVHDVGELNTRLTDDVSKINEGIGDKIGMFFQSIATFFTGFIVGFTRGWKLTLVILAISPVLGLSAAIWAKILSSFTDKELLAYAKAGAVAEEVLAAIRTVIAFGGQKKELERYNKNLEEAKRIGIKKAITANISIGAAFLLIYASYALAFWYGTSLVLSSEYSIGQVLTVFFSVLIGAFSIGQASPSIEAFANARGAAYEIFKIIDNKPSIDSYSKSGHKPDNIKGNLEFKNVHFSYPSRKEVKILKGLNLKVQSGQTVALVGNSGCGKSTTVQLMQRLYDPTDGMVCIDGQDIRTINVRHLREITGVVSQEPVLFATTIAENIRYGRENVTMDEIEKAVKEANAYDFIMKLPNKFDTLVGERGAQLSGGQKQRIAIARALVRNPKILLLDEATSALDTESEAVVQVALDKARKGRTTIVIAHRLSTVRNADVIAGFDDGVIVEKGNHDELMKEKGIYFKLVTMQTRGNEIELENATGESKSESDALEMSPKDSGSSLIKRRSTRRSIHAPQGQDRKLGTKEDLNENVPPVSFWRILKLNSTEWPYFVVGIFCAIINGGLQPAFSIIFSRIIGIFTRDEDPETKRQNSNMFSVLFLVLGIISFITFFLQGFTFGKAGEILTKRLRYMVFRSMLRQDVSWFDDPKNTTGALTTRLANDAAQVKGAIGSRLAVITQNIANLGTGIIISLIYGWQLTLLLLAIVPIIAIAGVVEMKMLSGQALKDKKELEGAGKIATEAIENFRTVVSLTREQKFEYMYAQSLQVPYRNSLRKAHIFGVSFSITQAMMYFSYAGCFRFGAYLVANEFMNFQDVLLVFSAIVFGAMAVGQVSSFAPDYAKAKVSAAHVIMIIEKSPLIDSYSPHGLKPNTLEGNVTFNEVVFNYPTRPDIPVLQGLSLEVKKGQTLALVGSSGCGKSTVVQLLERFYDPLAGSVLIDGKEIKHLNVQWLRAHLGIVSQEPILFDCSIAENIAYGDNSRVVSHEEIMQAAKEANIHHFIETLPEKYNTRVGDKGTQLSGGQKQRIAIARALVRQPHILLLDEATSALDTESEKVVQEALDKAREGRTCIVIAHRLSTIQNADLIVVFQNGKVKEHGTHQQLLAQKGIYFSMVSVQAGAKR

C=C(C)[C@@H]1CCC(C)=C[C@H]1c1c(O)cc(CCCCC)cc1O [CBD, cannabidiol]
Cmax ([1]; single oral dose 2 mg/kg total CBD/CBDA (1 mg/kg CBD and 1 mg/kg CBDA), read-out: mean maximum CBD concentration (Cmax)): 301 ng/mL
AUC ([1]; single oral dose 2 mg/kg total CBD/CBDA, read-out: area under the curve (AUC)): 1300 ng·h/mL
Tmax ([1]; single oral dose 2 mg/kg total CBD/CBDA, read-out: time to maximal concentration (Tmax)): 1.4 h
time-dependent inhibition (TDI) (CYP2D15): showed time-dependent inhibition (TDI)
P-gp substrate classification (canine P-glycoprotein): not a substrate for canine PGP
IC50 [2, 4]: 3.5 µg/mL (≈ 11.1 µM)
concentrations that significantly diminished proliferation vs vehicle control ([2]; P<0.05): ≥ 2.5 µg/mL
IC50 [3, 4]: 4.1 µg/mL (≈ 13 µM)
concentrations that significantly diminished proliferation vs vehicle control ([3]; P<0.05): ≥ 5 µg/mL
percent trypan blue positive cells (17-71 cells; 3.75 μg/mL CBD): 7±4%
percent trypan blue positive cells (17-71 cells; 7.5 μg/mL CBD): 27±8%
percent trypan blue positive cells (17-71 cells; 15 μg/mL CBD): 55%±6%
percent trypan blue positive cells (CMT12 cells; 3.75 μg/mL CBD): 4±2%
percent trypan blue positive cells (CMT12 cells; 7.5 μg/mL CBD): 9±3%
percent trypan blue positive cells (CMT12 cells; 15 μg/mL CBD): 87%±8%
